Assay results as given in patent publication US20070117743A1, “New antitumoral compounds” (priority 2003, published 2007).

Assays:
Format in all cases: cell-based, human
[1] = tested on: LoVo; assay: SRB colorimetric assay of cell growth and viability, LoVo; conditions: 48 hours exposure; for CC50: read-out: LC50 LOVO
[2] = tested on: LNCaP; assay: SRB colorimetric assay of cell growth and viability, LNCaP; conditions: 48 hours exposure; for GI50: read-out: GI50 LN-caP; for CC50: read-out: LC50 LN-caP
[3] = tested on: A-549; assay: SRB colorimetric assay of cell growth and viability, A-549; conditions: 48 hours exposure; for GI50: read-out: GI50 A-549; for CC50: read-out: LC50 A-549
[4] = tested on: IGROV-1; assay: SRB colorimetric assay of cell growth and viability, IGROV-1; conditions: 48 hours exposure
[5] = tested on: K-562; assay: SRB colorimetric assay of cell growth and viability, K-562; conditions: 48 hours exposure; for CC50: read-out: LC50 K-562
[6] = tested on: HeLa-APL; assay: SRB colorimetric assay of cell growth and viability, HeLa-APL; conditions: 48 hours exposure; for CC50: read-out: LC50 HELA-APL
[7] = tested on: SK-MEL-28; assay: SRB colorimetric assay of cell growth and viability, SK-MEL-28; conditions: 48 hours exposure; for CC50: read-out: LC50 MEL-28
[8] = tested on: SK-BR-3; assay: SRB colorimetric assay of cell growth and viability, SK-BR-3; conditions: 48 hours exposure
[9] = tested on: IGROV-ET; assay: SRB colorimetric assay of cell growth and viability, IGROV-ET; conditions: 48 hours exposure; for CC50: read-out: LC50 IGROV-ET
[10] = tested on: DU-145; assay: SRB colorimetric assay of cell growth and viability, DU-145; conditions: 48 hours exposure
[11] = tested on: PANC-1; assay: SRB colorimetric assay of cell growth and viability, PANC-1; conditions: 48 hours exposure; for CC50: read-out: LC50 PANC-1
[12] = tested on: HeLa; assay: SRB colorimetric assay of cell growth and viability, HeLa; conditions: 48 hours exposure; for CC50: read-out: LC50 HELA
[13] = tested on: HT-29; assay: SRB colorimetric assay of cell growth and viability, HT-29; conditions: 48 hours exposure; for GI50: read-out: GI50 HT-29; for CC50: read-out: LC50 HT-29
[14] = tested on: LoVo-Dox; assay: SRB colorimetric assay of cell growth and viability, LoVo-Dox; conditions: 48 hours exposure; for CC50: read-out: LC50 LOVO-DOX
Method in brief: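 48 h continuous exposure, 10 to 10^−8 μg/mL; 5×10^3 cells/well, 18 h attachment; TCA fix, 0.4% SRB, OD 490 nm. Triplicates; GI, TGI, LC derived.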

C/C=C1\NC(=O)[C@H](Cc2ccccc2)NC(=O)[C@@H](C(C)C)NC(=O)[C@@H]([C@@H](C)CC)NC(=O)[C@H](NC(=O)[C@H](NC(=O)[C@H](CCCN)NC(=O)[C@H]2CCCN2C(=O)[C@H](NC(=O)[C@@H](NC(=O)[C@@H](NC(=O)[C@H](NC(=O)CCCCCCC)C(C)C)[C@@H](C)O)C(C)C)C(C)C)[C@@H](C)CC)[C@@H](C)OC(=O)[C@H](C(C)C)NC1=O [Compound 18, [Oct^14]-KF]
GI50 [1]: 188 nM
TGI LOVO [1]: 2.68E−07 Molar
CC50 [1]: 402 nM
TGI LN-caP [2]: 1.34E−06 Molar
GI50 [2]: 402 nM
CC50 [2]: 3.35 µM
TGI A-549 [3]: 2.82E−07 Molar
GI50 [3]: 134 nM
CC50 [3]: 1.21 µM
GI50 [4]: 168 nM
LC50 (concentration causing 50% net cell killing) [4]: 1070 nM
TGI IGROV [4]: 3.02E−07 Molar
GI50 [5]: 2410 nM
CC50 [5]: 4.02 µM
GI50 [6]: 536 nM
TGI HELA-APL [6]: 1.07E−06 Molar
CC50 [6]: 3.35 µM
GI50 [7]: 670 nM
TGI MEL-28 [7]: 1.14E−06 Molar
CC50 [7]: 1.68 µM
GI50 [8]: 121 nM
LC50 [8]: 536 nM
TGI SK-BR-3 [8]: 3.02E−07 Molar
GI50 [9]: 147 nM
TGI IGROV-ET [9]: 3.02E−07 Molar
CC50 [9]: 2010 nM
GI50 [10]: 149 nM
LC50 (concentration causing 50% net cell kill) [10]: 1.47 µM
TGI DU-145 [10]: 6.70E−07 Molar
GI50 [11]: 2010 nM
TGI PANC-1 [11]: 3.35E−06 Molar
CC50 [11]: 6.03 µM
GI50 [12]: 288 nM
TGI HELA [12]: 8.04E−07 Molar
CC50 [12]: 1680 nM
TGI HT-29 [13]: 3.22E−07 Molar
GI50 [13]: 201 nM
CC50 [13]: 536 nM
GI50 [14]: 107 nM
TGI LOVO-DOX [14]: 1.68E−07 Molar
CC50 [14]: 335 nM

C/C=C1\NC(=O)[C@H](Cc2ccccc2)NC(=O)[C@@H](C(C)C)NC(=O)[C@@H]([C@@H](C)CC)NC(=O)[C@H](NC(=O)[C@H](NC(=O)[C@H](CCCN)NC(=O)[C@H]2CCCN2C(=O)[C@H](NC(=O)[C@@H](NC(=O)[C@@H](NC(=O)[C@H](NC(=O)C(F)(F)C(F)(F)C(F)(F)C(F)(F)C(F)(F)C(F)(F)F)C(C)C)[C@@H](C)O)C(C)C)C(C)C)[C@@H](C)CC)[C@@H](C)OC(=O)[C@H](C(C)C)NC1=O [Compound 26, [Pfh^14]-KF]
GI50 [1]: 654 nM
TGI LOVO [1]: 1.38E−06 Molar
CC50 [1]: 2990 nM
TGI LN-caP [2]: 1.72E−06 Molar
GI50 [2]: 900 nM
CC50 [2]: 3.28 µM
TGI A-549 [3]: 1.48E−06 Molar
GI50 [3]: 684 nM
CC50 [3]: 3.19 µM
GI50 [4]: 648 nM
LC50 (concentration causing 50% net cell killing) [4]: 3360 nM
TGI IGROV [4]: 1.48E−06 Molar
GI50 [5]: 1330 nM
TGI K-562 [5]: 2.33E−06 Molar
CC50 [5]: 4.07 µM
GI50 [6]: 455 nM
TGI HELA-APL [6]: 1.33E−06 Molar
CC50 [6]: 3.52 µM
GI50 [7]: 754 nM
TGI MEL-28 [7]: 1.50E−06 Molar
CC50 [7]: 2.96 µM
GI50 [8]: 144 nM
LC50 [8]: 2180 nM
TGI SK-BR-3 [8]: 4.92E−07 Molar
GI50 [9]: 199 nM
TGI IGROV-ET [9]: 5.14E−07 Molar
CC50 [9]: 2040 nM
GI50 [10]: 596 nM
LC50 (concentration causing 50% net cell kill) [10]: 3.35 µM
TGI DU-145 [10]: 1.41E−06 Molar
GI50 [11]: 2010 nM
TGI PANC-1 [11]: 5.50E−06 Molar
CC50 [11]: 5.84 µM
GI50 [12]: 701 nM
TGI HELA [12]: 1.57E−06 Molar
CC50 [12]: 3510 nM
TGI HT-29 [13]: 4.55E−07 Molar
GI50 [13]: 203 nM
CC50 [13]: 1890 nM
GI50 [14]: 131 nM
TGI LOVO-DOX [14]: 2.52E−07 Molar
CC50 [14]: 484 nM

C/C=C1\NC(=O)[C@H](Cc2ccccc2)NC(=O)[C@@H](C(C)C)NC(=O)[C@@H]([C@@H](C)CC)NC(=O)[C@H](NC(=O)[C@H](NC(=O)[C@H](CCCN)NC(=O)[C@H]2CCCN2C(=O)[C@H](NC(=O)[C@@H](NC(=O)[C@@H](NC(=O)[C@H](NC(=O)CCCCC(C)=O)C(C)C)[C@@H](C)O)C(C)C)C(C)C)[C@@H](C)CC)[C@@H](C)OC(=O)[C@H](C(C)C)NC1=O [Compound 27, [6-OHep^14]-KF]
GI50 [1]: 3500 nM
TGI LOVO [1]: 6.70E−06 Molar
CC50 [1]: 6700 nM
TGI LN-caP [2]: 6.70E−06 Molar
GI50 [2]: 6700 nM
CC50 [2]: 6.7 µM
TGI A-549 [3]: 6.70E−06 Molar
GI50 [3]: 6700 nM
CC50 [3]: 6.7 µM
GI50 [4]: 6700 nM
LC50 (concentration causing 50% net cell killing) [4]: 6700 nM
TGI IGROV [4]: 6.70E−06 Molar
GI50 [5]: 6700 nM
TGI K-562 [5]: 6.70E−06 Molar
CC50 [5]: 6.7 µM
GI50 [6]: 6700 nM
TGI HELA-APL [6]: 6.70E−06 Molar
CC50 [6]: 6.7 µM
GI50 [7]: 6700 nM
TGI MEL-28 [7]: 6.70E−06 Molar
CC50 [7]: 6.7 µM
GI50 [8]: 3160 nM
LC50 [8]: 6700 nM
TGI SK-BR-3 [8]: 6.70E−06 Molar
GI50 [9]: 6700 nM
TGI IGROV-ET [9]: 6.70E−06 Molar
CC50 [9]: 6700 nM
GI50 [10]: 6700 nM
LC50 (concentration causing 50% net cell kill) [10]: 6.7 µM
TGI DU-145 [10]: 6.70E−06 Molar
GI50 [11]: 6700 nM
TGI PANC-1 [11]: 6.70E−06 Molar
CC50 [11]: 6.7 µM
GI50 [12]: 6700 nM
TGI HELA [12]: 6.70E−06 Molar
CC50 [12]: 6700 nM
TGI HT-29 [13]: 6.70E−06 Molar
GI50 [13]: 6700 nM
CC50 [13]: 6700 nM
GI50 [14]: 2140 nM
TGI LOVO-DOX [14]: 6.70E−06 Molar
CC50 [14]: 6700 nM

C/C=C1\NC(=O)[C@H](Cc2ccccc2)NC(=O)[C@@H](C(C)C)NC(=O)[C@@H]([C@@H](C)CC)NC(=O)[C@H](NC(=O)[C@H](NC(=O)[C@H](CCCCN)NC(=O)[C@H]2CCCN2C(=O)[C@H](NC(=O)[C@@H](NC(=O)[C@@H](NC(=O)[C@H](NC(=O)CC[C@@H](C)CC)C(C)C)[C@@H](C)O)C(C)C)C(C)C)[C@@H](C)CC)[C@@H](C)OC(=O)[C@H](C(C)C)NC1=O [Compound 30, [Lys^8, (4S)-MeHex^14]-KF]
GI50 [1]: 135 nM
TGI LOVO [1]: 2.45E−07 Molar
CC50 [1]: 444 nM
TGI LN-caP [2]: 1.72E−06 Molar
GI50 [2]: 804 nM
CC50 [2]: 3.68 µM
TGI A-549 [3]: 2.24E−06 Molar
GI50 [3]: 1040 nM
CC50 [3]: 4.81 µM
GI50 [4]: 205 nM
LC50 (concentration causing 50% net cell killing) [4]: 1090 nM
TGI IGROV [4]: 3.87E−07 Molar
GI50 [5]: 1020 nM
TGI K-562 [5]: 2.28E−06 Molar
CC50 [5]: 5.07 µM
GI50 [6]: 677 nM
TGI HELA-APL [6]: 1.76E−06 Molar
CC50 [6]: 4.58 µM
GI50 [7]: 1190 nM
TGI MEL-28 [7]: 2.39E−06 Molar
CC50 [7]: 4.78 µM
GI50 [8]: 159 nM
LC50 [8]: 579 nM
TGI SK-BR-3 [8]: 3.04E−07 Molar
GI50 [9]: 192 nM
TGI IGROV-ET [9]: 3.50E−07 Molar
CC50 [9]: 637 nM
GI50 [10]: 329 nM
LC50 (concentration causing 50% net cell kill) [10]: 4.2 µM
TGI DU-145 [10]: 1.15E−06 Molar
GI50 [11]: 2170 nM
TGI PANC-1 [11]: 5.28E−06 Molar
CC50 [11]: 6.7 µM
GI50 [12]: 212 nM
TGI HELA [12]: 5.42E−07 Molar
CC50 [12]: 2470 nM
TGI HT-29 [13]: 2.99E−07 Molar
GI50 [13]: 173 nM
CC50 [13]: 517 nM
GI50 [14]: 164 nM
TGI LOVO-DOX [14]: 3.24E−07 Molar
CC50 [14]: 639 nM
